Experimental data from patent US20070191397A1, “Fungicidal mixtures based on oxime ether derivatives” (priority 2004, published 2007).

Tests used:
Puccinia recondita = assay: Curative action against brown rust of wheat caused by Puccinia recondita; assay type: in vivo; settings: wheat cultivar Kanzler, 7 days
Protocol: (§1) The active compounds, separately or jointly, were prepared as a stock solution with 0.25% by weight of active compound in acetone or DMSO. 1% by weight of the emulsifier Uniperol® EL (wetting agent having emulsifying and dispersing action based on ethoxylated alkylphenols) was added to this solution, and the solution was diluted with water to the desired concentration.
(§2) Evaluation was carried out by determining the infected leaf areas in percent. These percentages were converted into efficacies. The efficacy (E) is calculated as follows using Abbot's formula: E=(1−α/β)·100 α corresponds to the fungicidal infection of the treated plants in % and β corresponds to the fungicidal infection of the untreated (control) plants in %
(§3) An efficacy of 0 means that the infection level of the treated plants corresponds to that of the untreated control plants; an efficacy of 100 means that the treated plants were not infected.
(§4) The expected efficacies of the mixtures of active compounds are determined using Colby's formula [R.S. Colby, Weeds 15, 20-22 (1967)] and compared with the observed efficacies. Colby's formula: E=x+y−x·y/100 E expected efficacy, expressed in % of the untreated control, when using the mixture of the active compounds A and B at the concentrations a and b x efficacy, expressed in % of the untreated control, when using active compound A at the concentration a y efficacy, expressed in % of the untreated control, when using active compound B at the concentration b
Leaves of wheat seedlings of the cultivar “Kanzler”, grown in pots, were dusted with spores of brown rust (Puccinia recondita). The pots were then placed in the chamber with high atmospheric humidity (90-95%), at 20-22° C., for 24 hours. During this time the spores germinated and the germinal tubes penetrated into the leaf tissue. The next day, the infected plants were sprayed to runoff point with an aqueous suspension having the concentration of active compounds stated below. After the spray coating had dried on, the test plants were cultivated in a greenhouse at 20-22° C. and 65-70% relative atmospheric humidity for 7 days. Thereafter, the extent of the rust fungus development on the leaves was determined.

[1] = tested on: Erysiphe [syn. Blumeria] graminis form a specialis tritici; assay: Activity against mildew of wheat caused by Erysiphe [syn. Blumeria] graminis forma specialis tritici; assay type: in vivo
Protocol: as §1, §2, §3, §4
Leaves of wheat seedlings of the cultivar “Kanzler” grown in pots, were sprayed to runoff point with an aqueous suspension having the concentration of active compounds stated below. 24 hours after the spray coating had dried on, dusted with spores of mildew of wheat (Erysiphe [syn. Blumeria] graminis form a specialis tritici). The test plants were then placed in a greenhouse at 20-24° C. and 60-90% relative atmospheric humidity. After 7 days, the extent of the mildew development was determined visually in % infection of the entire leaf area.

CC1CCN(c2c(-c3c(F)cc(F)cc3F)c(Cl)nc3ncnn23)CC1 [I, 5-chloro-7-(4-methylpiperidin-1-yl)-6-(2,4,6-trifluoro-phenyl)-[1,2,4]triazolo[1,5-a]pyrimidine]
Efficacy in % of the untreated control (Puccinia recondita; 1 ppm in the spray liquor): 0% | Efficacy in % of the untreated control (Puccinia recondita; 4 ppm in the spray liquor): 89% | Efficacy in % of the untreated control ([1]; 0.25 ppm in the spray liquor, wheat cultivar Kanzler, sprayed 24 h before inoculation, 7 days): 0% | Efficacy in % of the untreated control ([1]; 1 ppm in the spray liquor, wheat cultivar Kanzler, sprayed 24 h before inoculation, 7 days): 9% | Efficacy in % of the untreated control ([1]; 4 ppm in the spray liquor, wheat cultivar Kanzler, sprayed 24 h before inoculation, 7 days): 60%

O=C(Cc1ccccc1)N/C(=N\OCC1CC1)c1c(OC(F)F)ccc(F)c1F [II.14]
Efficacy in % of the untreated control (Puccinia recondita; 0.06 ppm in the spray liquor): 0% | Efficacy in % of the untreated control (Puccinia recondita; 0.25 ppm in the spray liquor): 0% | Efficacy in % of the untreated control (Puccinia recondita; 1 ppm in the spray liquor): 0%

O=C(Cc1ccccc1)N/C(=N\OCC1CC1)c1c(C(F)(F)F)ccc(F)c1F [II.1]
Efficacy in % of the untreated control ([1]; 0.25 ppm): 70%
